Reference: patent US20140296212A1, “SUBSTITUTED PHENOXYPROPYLCYCLOAMINE DERIVATIVES AS HISTAMINE-3 (H3) RECEPTOR LIGANDS” (CEPHALON, INC., priority 2009, published 2014)
pKi: −log10 of the molar value.

What follows are compounds tested against T1, human H3 receptor (Homo sapiens, UniProt Q9Y5N1) (assay: Human H3 radioligand binding ([3H]-N-alpha-methylhistamine, SPA)). Conditions: membranes of CHO cells expressing human H3.
T1 construct: expressed in transfected cells
Experimental: Cell pellets were resuspended in 5 mM Tris-HCl, pH 7.5 with 5 nM EDTA and a cocktail of protease inhibitors (Complete Protease Inhibitor Tablets, Roche Diagnostics). Cells were disrupted using a polytron cell homogenizer and the suspension was centrifuged at 1000×g for 10 minutes at 4° C. The pellet was discarded and the supernatant centrifuged at 40,000×g for 30 min at 4° C. This membrane pellet was washed in membrane buffer containing 50 mM Tris-HCl, pH 7.5 with 0.6 mM EDTA, 5 mM MgCl2 and protease inhibitors, recentrifuged as above and the final pellet resuspended in membrane buffer plus 250 mM sucrose and frozen at −80° C.
(§1) Membranes were resuspended in 50 mM Tris HCl (pH 7.4), 5 mM MgCl2, 0.1% BSA. The membrane suspensions (10 μg protein per well) were incubated in a 96 well microtiter plate with [^3H]-N-alpha-methylhistamine (approximately 1 nM final concentration), test compounds at various concentrations (0.01 nM-30 μM) and scintillation proximity beads (Perkin Elmer, FlashBlueGPCR Scintillating Beads) in a final volume of 80 μl for 4 hours at room temperature, protected from light. Non-specific binding was determined in the presence of 10 μM clobenpropit. Radioligand bound to receptor, and therefore in proximity to the scintillation beads, was measured using a MicroBeta scintillation counter.

T1 sequence (Q9Y5N1 whole entry): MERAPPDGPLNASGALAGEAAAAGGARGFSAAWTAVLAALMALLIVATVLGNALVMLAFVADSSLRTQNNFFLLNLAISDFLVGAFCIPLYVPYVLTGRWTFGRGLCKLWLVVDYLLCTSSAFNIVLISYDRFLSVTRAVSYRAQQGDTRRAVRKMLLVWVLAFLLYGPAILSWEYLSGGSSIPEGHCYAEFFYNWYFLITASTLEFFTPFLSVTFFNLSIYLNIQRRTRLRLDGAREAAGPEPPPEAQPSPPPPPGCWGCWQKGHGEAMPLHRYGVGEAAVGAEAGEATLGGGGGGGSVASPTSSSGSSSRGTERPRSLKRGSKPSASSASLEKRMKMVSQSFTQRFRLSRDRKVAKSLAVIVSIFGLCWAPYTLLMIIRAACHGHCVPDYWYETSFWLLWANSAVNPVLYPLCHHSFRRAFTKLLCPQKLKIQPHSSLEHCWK

Row | pKi | SMILES
1 | 7.00 to 10.00 | C[C@@H]1CCCN1CCCOc1ccc(C(=O)CN2CCC(C#N)CC2)cc1 [Example 43, 1-(2-{4-[3-((R)-2-Methyl-pyrrolidin-1-yl)-propoxy]-phenyl}-2-oxo-ethyl)-piperidine-4-carbonitrile]
2 | 7.00 to 10.00 | C[C@@H]1CCCN1CCCOc1ccc(C(=O)CN2CCN(C(=O)c3ccccc3)CC2)cc1 [Example 68, 2-(4-Benzoyl-piperazin-1-yl)-1-{4-[3-((R)-2-methyl-pyrrolidin-1-yl)-propoxy]-phenyl}-ethanone]
3 | 6.30 to 7.00 | CC(C(=O)c1ccc(OCCCN2CCC[C@@H]2C)cc1)N1CCCCC1=O (stereo partly drawn) [Example 36, 1-(1-Methyl-2-{4-[3-((S)-2-methyl-pyrrolidin-1-yl)-propoxy]-phenyl}-2-oxo-ethyl)-piperidin-2-one]
4 | 7.00 to 10.00 | O=C(CN1CCc2ccccc2C1)c1ccc(OCCCN2CCCCC2)cc1 [Example 4, 2-(3,4-Dihydro-1H-isoquinolin-2-yl)-1-[4-(3-piperidin-1-yl-propoxy)-phenyl]-ethanone]
5 | 7.00 to 10.00 | CC1CCCCN1CCCOc1ccc(C(=O)CN2CCCCC2)cc1 (stereo not drawn) [Example 10, 1-{4-[3-(2-Methyl-piperidin-1-yl)-propoxy]-phenyl}-2-piperidin-1-yl-ethanone]
6 | 7.00 to 10.00 | CO/N=C(/CN1CCCCC1)c1ccc(OCCCN2CCC[C@H]2C)cc1 [Example 161]
7 | 7.00 to 10.00 | C[C@H]1CCCN1CCCOc1ccc(C(=O)CN2CCCCC2)cc1 [Example 13, 1-{4-[3-((S)-2-Methyl-pyrrolidin-1-yl)-propoxy]-phenyl}-2-piperidin-1-yl-ethanone]
8 | 7.00 to 10.00 | C[C@@H]1CCCN1CCCOc1ccc(C(=O)CN2CCc3ccccc3C2)cc1 [Example 9, 2-(3,4-Dihydro-1H-isoquinolin-2-yl)-1-{4-[3-((R)-2-methyl-pyrrolidin-1-yl)-propoxy]-phenyl}-ethanone]
9 | 7.00 to 10.00 | CC(C(=NOCc1ccccc1)c1ccc(OCCCN2CCCCC2)cc1)N1CCCCC1 (stereo not drawn) [Example 164]
10 | 7.00 to 10.00 | O=C(CN1CCCc2ccccc21)c1ccc(OCCCN2CCCCC2)cc1 [Example 7, 2-(3,4-Dihydro-2H-quinolin-1-yl)-1-[4-(3-piperidin-1-yl-propoxy)-phenyl]-ethanone]
11 | 7.00 to 10.00 | O=C(CN1Cc2ccccc2C1)c1ccc(OCCCN2CCCCC2)cc1 [Example 6, 2-(1,3-Dihydro-isoindol-2-yl)-1-[4-(3-piperidin-1-yl-propoxy)-phenyl]-ethanone]
12 | 7.00 to 10.00 | O=C(CN1CCN(c2ccccc2)CC1)c1ccc(OCCCN2CCCC2)cc1 [Example 17, 2-(4-Phenyl-piperazin-1-yl)-1-[4-(3-pyrrolidin-1-yl-propoxy)-phenyl]-ethanone]
13 | 7.00 to 10.00 | CC1CCCN1CCCOc1ccc(/C(CN2CCN(c3ccccc3)CC2)=N/OC(C)(C)C)cc1 (stereo not drawn) [Example 166]
14 | 7.00 to 10.00 | CC1CCCN1CCCOc1ccc(C(=O)CN2CCN(c3ccccc3)CC2)cc1 (stereo not drawn) [Example 18, 1-{4-[3-(2-Methyl-pyrrolidin-1-yl)-propoxy]-phenyl}-2-(4-phenyl-piperazin-1-yl)-ethanone]
15 | 7.00 to 10.00 | O=C(CN1CCCCC1)c1ccc(OCCCN2CCCCC2)cc1 [Example 2, 2-Piperidin-1-yl-1-[4-(3-piperidin-1-yl-propoxy)-phenyl]-ethanone]
16 | 7.00 to 10.00 | CC1CCCC(C)N1CCCOc1ccc(C(=O)CN2CCCCC2)cc1 (stereo not drawn) [Example 11, 1-{4-[3-(2,6-Dimethyl-piperidin-1-yl)-propoxy]-phenyl}-2-piperidin-1-yl-ethanone]
17 | 7.00 to 10.00 | CO/N=C(\CN1CCCCC1)c1ccc(OCCCN2CCC[C@H]2C)cc1 [Example 159]
18 | 7.00 to 10.00 | O=C(CN1CCCCC1)c1ccc(OCCCN2CCCC2)cc1 [Example 3, 2-Piperidin-1-yl-1-[4-(3-pyrrolidin-1-yl-propoxy)-phenyl]-ethanone]
19 | 7.00 to 10.00 | C[C@@H]1CC[C@@H](C)N1CCCOc1ccc(C(=O)CN2CCCCC2)cc1 [Example 12, 1-{4-[3-((2R,5R)-2,5-Dimethyl-pyrrolidin-1-yl)-propoxy]-phenyl}-2-piperidin-1-yl-ethanone]
20 | 7.00 to 10.00 | C[C@@H]1CCCN1CCCOc1ccc(/C(CN2CCOCC2)=N/OC2CCCCC2)cc1 [Example 170]
21 | 7.00 to 10.00 | CC(C)O/N=C(\CN1CCOCC1)c1ccc(OCCCN2CCC[C@H]2C)cc1 [Example 171]
22 | 7.00 to 10.00 | CC(C)N1CCN(CCCOc2ccc(C(=O)CN3CCCCC3)cc2)CC1 [Example 16, 1-{4-[3-(4-Isopropyl-piperazin-1-yl)-propoxy]-phenyl}-2-piperidin-1-yl-ethanone]
23 | 7.00 to 10.00 | O=C(CN1CCc2ccccc2C1)c1ccc(OCCCN2CCCC2)cc1 [Example 5, 2-(3,4-Dihydro-1H-isoquinolin-2-yl)-1-[4-(3-pyrrolidin-1-yl-propoxy)-phenyl]-ethanone]
24 | 7.00 to 10.00 | CC1CCCN1CCCOc1ccc(C(=O)C(C)N2CCN(c3ccccc3)CC2)cc1 (stereo not drawn) [Example 28, 1-{4-[3-(2-Methyl-pyrrolidin-1-yl)-propoxy]-phenyl}-2-(4-phenyl-piperazin-1-yl)-propan-1-one]

Row | SMILES | pKi
25 | CC1CCCN1CCCOc1ccc(C(=O)C(C)N2CCCC2)cc1 (stereo not drawn) [Example 24, 1-{4-[3-(2-Methyl-pyrrolidin-1-yl)-propoxy]-phenyl}-2-pyrrolidin-1-yl-propan-1-one] | 7.00 to 10.00
26 | CC(C(=O)c1ccc(OCCCN2CCCC2)cc1)N1CCCCC1 (stereo not drawn) [Example 14, 2-Piperidin-1-yl-1-[4-(3-pyrrolidin-1-yl-propoxy)-phenyl]-propan-1-one] | 7.00 to 10.00
27 | CON=C(c1ccc(OCCCN2CCCCC2)cc1)C(C)N1CCCCC1 (stereo not drawn) [Example 163] | 7.00 to 10.00
28 | CON=C(c1ccc(OCCCN2CCCC2C)cc1)C(C)N1CCCCC1 (stereo not drawn) [Example 169] | 7.00 to 10.00
29 | CC(C(=O)c1ccc(OCCCN2CCCC2)cc1)N1CCN(c2ccccc2)CC1 (stereo not drawn) [Example 30, 2-(4-Phenyl-piperazin-1-yl)-1-[4-(3-pyrrolidin-1-yl-propoxy)-phenyl]-propan-1-one] | 7.00 to 10.00
30 | CC(C(=O)c1ccc(OCCCN2CCCCC2)cc1)N1CCSCC1 (stereo not drawn) [Example 34, 1-[4-(3-Piperidin-1-yl-propoxy)-phenyl]-2-thiomorpholin-4-yl-propan-1-one] | 7.00 to 10.00
31 | CC(=O)N1CCN(C(C)C(=O)c2ccc(OCCCN3CCCC3C)cc2)CC1 (stereo not drawn) [Example 33, 2-(4-Acetyl-piperazin-1-yl)-1-{4-[3-(2-methyl-pyrrolidin-1-yl)-propoxy]-phenyl}-propan-1-one] | 7.00 to 10.00
32 | CC(C(=O)c1ccc(OCCCN2CCCC2)cc1)N1CCOCC1 (stereo not drawn) [Example 25, 2-Morpholin-4-yl-1-[4-(3-pyrrolidin-1-yl-propoxy)-phenyl]-propan-1-one] | 7.00 to 10.00
33 | CC(C(=O)c1ccc(OCCCN2CCCCC2)cc1)N1CCOCC1 (stereo not drawn) [Example 26, 2-Morpholin-4-yl-1-[4-(3-piperidin-1-yl-propoxy)-phenyl]-propan-1-one] | 7.00 to 10.00
34 | CC1CCCN1CCCOc1ccc(C(=O)C(C)N2CCSCC2)cc1 (stereo not drawn) [Example 35, 1-{4-[3-(2-Methyl-pyrrolidin-1-yl)-propoxy]-phenyl}-2-thiomorpholin-4-yl-propan-1-one] | 7.00 to 10.00
35 | CC(=O)N1CCN(C(C)C(=O)c2ccc(OCCCN3CCCCC3)cc2)CC1 (stereo not drawn) [Example 32, 2-(4-Acetyl-piperazin-1-yl)-1-[4-(3-piperidin-1-yl-propoxy)-phenyl]-propan-1-one] | 7.00 to 10.00
36 | CC(C(=O)c1ccc(OCCCN2CCCC2)cc1)N1CCCC1 (stereo not drawn) [Example 23, 2-Pyrrolidin-1-yl-1-[4-(3-pyrrolidin-1-yl-propoxy)-phenyl]-propan-1-one] | 7.00 to 10.00
37 | CC(C(=O)c1ccc(OCCCN2CCCCC2)cc1)N1CCN(c2ccccc2)CC1 (stereo not drawn) [Example 31, 2-(4-Phenyl-piperazin-1-yl)-1-[4-(3-piperidin-1-yl-propoxy)-phenyl]-propan-1-one] | 7.00 to 10.00

These compounds were tested against T2, rat histamine H3 receptor (Rattus norvegicus, UniProt Q9QYN8) (assay: Rat H3 radioligand binding ([3H]-N-alpha-methylhistamine, SPA)). Conditions: not given.
T2 construct: encoding the entire 445-amino-acid rat histamine H3 receptor; expressed in transfected cells
Description: The rat H3 receptor cDNA was PCR amplified from reverse-transcribed RNA pooled from rat thalamus, hypothalamus, striatum and prefrontal cortex with a sequence corresponding to by #338-1672 of Genbank file #NM_053506, encoding the entire 445-amino-acid rat histamine H3 receptor. This was engineered into the pIRES-neo3 mammalian expression vector, which was stably transfected into the CHO-A3 cell line (Euroscreen, Belgium), followed by clonal selection by limiting dilution. Cells were harvested and cell pellets were frozen (−80° C.). Cell pellets were resuspended in 5 mM Tris-HCl, pH 7.5 with 5 nM EDTA and a cocktail of protease inhibitors (Complete Protease Inhibitor Tablets, Roche Diagnostics). Cells were disrupted using a polytron cell homogenizer and the suspension was centrifuged at 1000×g for 10 minutes at 4° C. The pellet was discarded and the supernatant centrifuged at 40,000×g for 30 min at 4° C. This membrane pellet was washed in membrane buffer containing 50 mM Tris-HCl, pH 7.5 with 0.6 mM EDTA, 5 mM MgCl2 and protease inhibitors, recentrifuged as above and the final pellet resuspended in membrane buffer plus 250 mM sucrose and frozen at −80° C.
as §1

T2 sequence (Q9QYN8 whole entry): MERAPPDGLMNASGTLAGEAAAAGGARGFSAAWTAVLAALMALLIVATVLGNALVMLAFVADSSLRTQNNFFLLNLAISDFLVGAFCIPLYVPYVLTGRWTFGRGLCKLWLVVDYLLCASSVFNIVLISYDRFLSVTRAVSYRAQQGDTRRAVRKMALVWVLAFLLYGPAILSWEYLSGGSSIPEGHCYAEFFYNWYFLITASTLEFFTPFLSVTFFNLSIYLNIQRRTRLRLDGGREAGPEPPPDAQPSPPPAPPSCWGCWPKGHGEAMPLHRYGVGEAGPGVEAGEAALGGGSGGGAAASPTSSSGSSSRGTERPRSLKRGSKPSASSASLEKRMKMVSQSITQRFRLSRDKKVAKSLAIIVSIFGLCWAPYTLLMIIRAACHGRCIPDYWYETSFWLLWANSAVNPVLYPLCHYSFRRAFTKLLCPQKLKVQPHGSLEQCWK

Row | SMILES | pKi
38 | CC1CCCN1CCCOc1ccc(C(=O)CN2CCOCC2)cc1 (stereo not drawn) [Example 1, 1-{4-[3-(2-Methyl-pyrrolidin-1-yl)-propoxy]-phenyl}-2-morpholin-4-yl-ethanone] | 7.00 to 10.00
39 | C[C@H]1CCCN1CCCOc1ccc(C(=O)CN2CCOCC2)cc1 [Example 42, 1-{4-[3-((S)-2-Methyl-pyrrolidin-1-yl)-propoxy]-phenyl}-2-morpholin-4-yl-ethanone] | 6.00 to 6.30
40 | C[C@@H]1CCCN1CCCOc1ccc(C(=O)CN2CCOCC2)cc1 [Example 41, 1-{4-[3-((R)-2-Methyl-pyrrolidin-1-yl)-propoxy]-phenyl}-2-morpholin-4-yl-ethanone] | 7.00 to 10.00

Same assay, conditions: membranes of CHO-A3 cells expressing rat H3; [3H]-N-alpha-methylhistamine; read-out: Rat H3 Ki

Row | pKi | SMILES
41 | 7.00 to 10.00 | C[C@@H]1CCCN1CCCOc1ccc(C(=O)CN2CCC(C#N)CC2)cc1 [Example 43, 1-(2-{4-[3-((R)-2-Methyl-pyrrolidin-1-yl)-propoxy]-phenyl}-2-oxo-ethyl)-piperidine-4-carbonitrile]
42 | 7.00 to 10.00 | C[C@@H]1CCCN1CCCOc1ccc(C(=O)CN2CCN(C(=O)c3ccccc3)CC2)cc1 [Example 68, 2-(4-Benzoyl-piperazin-1-yl)-1-{4-[3-((R)-2-methyl-pyrrolidin-1-yl)-propoxy]-phenyl}-ethanone]
